Values of other authors in patent publication US20030008014A1, “Truncated apolipoprotein B-containing lipoprotein particles for delivery of compounds to tissues or cells” (priority 2001, published 2003).

Tests used:
breast tumor xenografts = details: two 10 mg/kg injections on days 1 and 4

solubility in phospholipid disks [mole %] | SMILES | inhibition of tumor growth (breast tumor xenografts)
~30 | CC(C)CCC[C@@H](C)[C@H]1CC[C@H]2[C@@H]3CC=C4C[C@@H](O)CC[C@]4(C)[C@H]3CC[C@]12C [Free cholesterol, cholesterol] | –
– | CC(=O)O[C@H]1C(=O)[C@@]2(C)[C@H]([C@H](OC(=O)c3ccccc3)[C@]3(O)C[C@H](OC(=O)[C@H](O)[C@@H](NC(=O)c4ccccc4)c4ccccc4)C(C)=C1C3(C)C)[C@]1(OC(C)=O)CO[C@@H]1C[C@@H]2O [paclitaxel] | maximal inhibition of tumor growth
